Where two headings read alike, the source gives them in different places. Starred links: 1 amine or outer side, 2 acyl side, 3 side chain; linkers in the order of their positions; H or OH if unused. Positions of bridges follow the written chain, without caps; N, C: chain ends. Non-standard residues stand in square brackets, D forms with d. Residues, ends and D or L forms follow the SMILES beside them. Groups on a side chain read outwards from the residue. *: point of attachment. X1 = C[N+](C)(CCNC(=O)CCCCCCCCCCCCCCCCC(=O)O)CC(=O)*; C18 diacid = O=C(O)CCCCCCCCCCCCCCCCC(=O)*; Dip = N[C@H](C(=O)O)C(c1ccccc1)c1ccccc1; γGlu = O=C(O)[C@H](CCC(=O)[*:2])N[*:1]; Ethylenediamine = C(CN[*:2])N[*:1]; Palmitoyl = CCCCCCCCCCCCCCCC(=O)*; β3hF = N[C@H](CC(=O)O)Cc1ccccc1; NMeK = CN[C@@H](CCCCN)C(=O)O; Pen = CC(C)(S)[C@H](N)C(=O)O; Isovaleryl = CC(C)CC(=O)*; hCys = N[C@@H](CCS)C(=O)O; Dap = NC[C@H](N)C(=O)O; AEEA = NCCOCCOCC(=O)O; Ahx = NCCCCCC(=O)O
Assays:
ferroportin [1] = target: T1, ferroportin (Homo sapiens, UniProt Q9NP59); experiment: T47D cell-based ferroportin internalization assay in presence of mouse serum albumin (MSA); set-up: a human breast carcinoma adherent cell line which endogenously expresses ferroportin; host or cells: T47D
T1 sequence (Q9NP59 1-571): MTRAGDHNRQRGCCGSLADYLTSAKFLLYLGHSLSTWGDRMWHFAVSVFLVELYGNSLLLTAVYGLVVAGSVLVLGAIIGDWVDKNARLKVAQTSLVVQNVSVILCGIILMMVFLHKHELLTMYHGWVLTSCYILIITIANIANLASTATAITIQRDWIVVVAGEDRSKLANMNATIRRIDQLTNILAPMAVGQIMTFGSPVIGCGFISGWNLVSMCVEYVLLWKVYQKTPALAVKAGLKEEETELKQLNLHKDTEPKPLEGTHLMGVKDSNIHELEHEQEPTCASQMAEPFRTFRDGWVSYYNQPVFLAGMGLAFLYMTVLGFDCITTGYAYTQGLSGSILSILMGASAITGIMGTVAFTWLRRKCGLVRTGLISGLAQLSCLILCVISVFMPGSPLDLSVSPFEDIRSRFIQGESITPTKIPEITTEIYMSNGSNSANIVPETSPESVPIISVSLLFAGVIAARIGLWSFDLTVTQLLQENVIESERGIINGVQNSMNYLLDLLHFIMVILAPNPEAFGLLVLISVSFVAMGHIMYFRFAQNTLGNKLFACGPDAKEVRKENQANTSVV
Method in brief: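 Peptide potency for inducing ferroportin internalization was measured in T47D cells in the presence of serum albumin. Cells grown in RPMI with fetal bovine serum were seeded in 96-well plates at 80-100 k cells per well in 100 ul and rested overnight. Dilution series of test peptides were preincubated 30 min at room temperature, then added to the cells after the medium was aspirated.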

ferroportin [2] = target: T1, ferroportin; experiment: FPN activity assay: ferroportin-GFP internalization/degradation in HEK293 cells; format: cell-based; set-up: expressed in transfected cells; settings: read-out: FPN IC50
Experimental: Following internalization, the ferroporin protein is degraded.
A retro inverse peptide is a peptide with a reversed sequence in all D amino acids. An example is that Hy-Glu-Thr-His-NH2 becomes Hy-DHis-DThr-DGlu-NH2. The EC50 of these reference compounds for ferroportin internalization/degradation was determined according to the FPN activity assay described above. These peptides served as control standards.

[3] = T47D cells, 0.5% mouse serum albumin, 1 hr incubation
[4] = ferroportin-GFP HEK293 cells, at least 18 hours
[5] = Table 6E, T47D internalization assay with MSA
[6] = Table 6E, ferroportin-GFP internalization/degradation, at least 18 hours incubation
[7] = T47D internalization assay in presence of mouse serum albumin (MSA), Table 6E
[8] = ferroportin-GFP internalization/degradation, HEK293 cells, Table 6E

Compound	IC50 (ferroportin [1]; [3]) [nM]	DC50 (ferroportin [2]; [4]) [nM]	IC50 (ferroportin [1]; [5]) [nM]	DC50 (ferroportin [2]; [6]) [nM]	IC50 (ferroportin [1]; [7]) [nM]	DC50 (ferroportin [2]; [8]) [nM]
CC[C@H](C)[C@H](NC(=O)[C@@H]1CSSC[C@H](NC(=O)[C@@H](NC(=O)[C@H](Cc2c[nH]cn2)NC(=O)[C@@H](NC(=O)[C@H](CCC(=O)O)NC(=O)CC(C)C)[C@@H](C)O)C(c2ccccc2)c2ccccc2)C(=O)N1)C(=O)N[C@@H](CCCCNC(=O)COCCOCCNC(=O)COCCOCCNC(=O)CC[C@H](NC(=O)CCCCCCCCCCCCCCCCC(=O)O)C(=O)O)C(=O)N[C@H](CC(=O)N[C@H](CCCCN)C(N)=O)Cc1ccccc1 [Compd 30] (Isovaleryl-ETH[Dip]CCIK([AEEA-AEEA-γGlu-C18 diacid])[β3hF][dK]-NH2; disulfide 5-6)	10 to 100	10 to 100				
CC[C@H](C)[C@@H]1NC(=O)[C@@H](NC(=O)[C@@H]2CCCN2C(=O)[C@@H](NC(=O)[C@H](Cc2c[nH]cn2)NC(=O)[C@@H](NC(=O)[C@H](CCC(=O)O)NC(=O)CC(C)C)[C@@H](C)O)C(c2ccccc2)c2ccccc2)CSSC[C@@H](C(N)=O)NC(=O)C[C@H](Cc2ccccc2)NC(=O)[C@H](CCCCNC(=O)COCCOCCNC(=O)COCCOCCNC(=O)CC[C@H](NC(=O)CCCCCCCCCCCCCCCCC(=O)O)C(=O)O)NC1=O [Compd 32] (Isovaleryl-ETH[Dip]PCIK([AEEA-AEEA-γGlu-C18 diacid])[β3hF]C-NH2; disulfide 6-10)	100 to 500	10 to 100				
CCCCCCCCCCCCCCCC(=O)NCCCC[C@H]1C(=O)N[C@@H](C(c2ccccc2)c2ccccc2)C(=O)N[C@@H](C(N)=O)CCCCNC(=O)CC[C@H](NC(=O)CC(C)C)C(=O)N[C@@H]([C@@H](C)O)C(=O)N[C@@H](Cc2c[nH]cn2)C(=O)N[C@@H](C(c2ccccc2)c2ccccc2)C(=O)N2CCC[C@H]2C(=O)N[C@H]2CSSC[C@H](NC2=O)C(=O)N1C [compound 142] (Isovaleryl-ETH[Dip]PCC[NMeK](Palmitoyl)[Dip][dK]-NH2; lactam 1-10; disulfide 6-7)			10 to 100	1 to 10		
COC(=O)CC[C@H](NC(=O)CC(C)C)C(=O)N[C@H](C(=O)N[C@@H](Cc1c[nH]cn1)C(=O)N[C@H](C(=O)N1CCC[C@H]1C(=O)N[C@H]1CSSC[C@@H](C(=O)N(C)[C@@H](CCCCNC(=O)CCCCCNC(=O)C[N+](C)(C)CCNC(=O)CCCCCCCCCCCCCCCCC(=O)O)C(=O)N[C@H](C(=O)N[C@H](CCCCN)C(N)=O)C(c2ccccc2)c2ccccc2)NC1=O)C(c1ccccc1)c1ccccc1)[C@@H](C)OC [compound 147] (Isovaleryl-E(OMe)T(Me)H[Dip]PCC[NMeK]([Ahx-X1])[Dip][dK]-NH2; disulfide 6-7)			100 to 500	10 to 100		
CC(C)CC(=O)N[C@@H](CCC(=O)O)C(=O)N[C@H](C(=O)N[C@@H](Cc1c[nH]cn1)C(=O)N[C@H](C(=O)N1CCC[C@H]1C(=O)N[C@H]1CSSC(C)(C)[C@@H](C(=O)N[C@@H](CCCCNC(=O)COCCOCCNC(=O)COCCOCCNC(=O)[C@H](CN)NC(=O)CCCCCCCCCCCCCCCCC(=O)O)C(=O)N[C@H](CC(=O)N[C@H](CCCCN)C(N)=O)Cc2ccccc2)NC1=O)C(c1ccccc1)c1ccccc1)[C@@H](C)O [compound 272] (Isovaleryl-ETH[Dip]PC[Pen]K([AEEA-AEEA-Dap-C18 diacid])[β3hF][dK]-NH2; disulfide 6-7)					10 to 100	10 to 100
COC(=O)CC[C@H](NC(=O)CC(C)C)C(=O)N[C@H](C(=O)N[C@@H](Cc1c[nH]cn1)C(=O)N[C@H](C(=O)N1CCC[C@H]1C(=O)N[C@H]1CSSC[C@@H](C(=O)N(C)[C@@H](CCCCNC(=O)CCCCCNC(=O)[C@H](CN)NC(=O)CCCCCCCCCCCCCCCCC(=O)O)C(=O)N[C@H](C(=O)N[C@H](CCCCN)C(N)=O)C(c2ccccc2)c2ccccc2)NC1=O)C(c1ccccc1)c1ccccc1)[C@@H](C)O [compound 207] (Isovaleryl-E(OMe)TH[Dip]PCC[NMeK]([Ahx-Dap-C18 diacid])[Dip][dK]-NH2; disulfide 6-7)			10 to 100	1 to 10		
CC(C)CC(=O)N[C@@H](CCC(=O)O)C(=O)N[C@H](C(=O)N[C@@H](Cc1cnc[nH]1)C(=O)N[C@H](C(=O)N1CCC[C@H]1C(=O)N[C@H]1CSSC[C@@H](C(=O)N(C)[C@@H](CCCCNC(=O)COCCOCCNC(=O)COCCOCCNC(=O)[C@H](CN)NC(=O)CCCCCCCCCCCCCCCCC(=O)O)C(=O)N[C@H](CC(=O)N(C)[C@@H](CCCCN)C(N)=O)Cc2ccccc2)NC1=O)C(c1ccccc1)c1ccccc1)[C@@H](C)O [compound 292] (Isovaleryl-ETH[Dip]PCC[NMeK]([AEEA-AEEA-Dap-C18 diacid])[β3hF][NMeK]-NH2; disulfide 6-7)					1 to 10	10 to 100
CC(C)CC(=O)N[C@@H](CCC(=O)O)C(=O)N[C@H](C(=O)N[C@@H](Cc1c[nH]cn1)C(=O)N[C@H](C(=O)N1CCC[C@H]1C(=O)N[C@H]1CCSSCC[C@@H](C(=O)N[C@@H](CCCCNC(=O)COCCOCCNC(=O)COCCOCCNC(=O)[C@H](CN)NC(=O)CCCCCCCCCCCCCCCCC(=O)O)C(=O)N[C@H](CC(=O)N[C@H](CCCCN)C(N)=O)Cc2ccccc2)NC1=O)C(c1ccccc1)c1ccccc1)[C@@H](C)O [compound 268] (Isovaleryl-ETH[Dip]P[hCys][hCys]K([AEEA-AEEA-Dap-C18 diacid])[β3hF][dK]-NH2; disulfide 6-7)					10 to 100	10 to 100
CCCCCCCCCCCCCCCC(=O)NCCCCCC(=O)NCCCC[C@H]1C(=O)N[C@@H](C(c2ccccc2)c2ccccc2)C(=O)NCCNC(=O)CC[C@H](NC(=O)CC(C)C)C(=O)N[C@@H]([C@@H](C)O)C(=O)N[C@@H](Cc2c[nH]cn2)C(=O)N[C@@H](C(c2ccccc2)c2ccccc2)C(=O)N2CCC[C@H]2C(=O)N[C@H]2CSSC[C@H](NC2=O)C(=O)N1C [compound 161] (Isovaleryl-ETH[Dip]PCC[NMeK]([Ahx-Palmitoyl])[Dip]; linker 1-C via Ethylenediamine; disulfide 6-7)			10 to 100	1 to 10		
CC(C)CC(=O)N[C@@H](CCC(=O)O)C(=O)N[C@H](C(=O)N[C@@H](Cc1c[nH]cn1)C(=O)N[C@H](C(=O)N1CCC[C@H]1C(=O)N[C@H]1CCSSCC[C@@H](C(=O)N(C)[C@@H](CCCCNC(=O)COCCOCCNC(=O)COCCOCCNC(=O)[C@H](CN)NC(=O)CCCCCCCCCCCCCCCCC(=O)O)C(=O)N[C@H](CC(=O)N[C@H](CCCCN)C(N)=O)Cc2ccccc2)NC1=O)C(c1ccccc1)c1ccccc1)[C@@H](C)O [compound 269] (Isovaleryl-ETH[Dip]P[hCys][hCys][NMeK]([AEEA-AEEA-Dap-C18 diacid])[β3hF][dK]-NH2; disulfide 6-7)					10 to 100	10 to 100
COC(=O)CC[C@H](NC(=O)CC(C)C)C(=O)N[C@H](C(=O)N[C@@H](Cc1c[nH]cn1)C(=O)N[C@H](C(=O)N1CCC[C@H]1C(=O)N[C@H]1CSSC[C@@H](C(=O)N[C@@H](CCCCNC(=O)COCCOCCNC(=O)COCCOCCNC(=O)[C@H](CN)NC(=O)CCCCCCCCCCCCCCCCC(=O)O)C(=O)N[C@H](CC(=O)N[C@H](CCCCN)C(N)=O)Cc2ccccc2)NC1=O)C(c1ccccc1)c1ccccc1)[C@@H](C)O [Compd ID 42, Isovaleric Acid-[Glu_OMe]-T-H-[Dpa]-P-[Cys]-[Cys]-[Lys(1PEG2_1PEG2_Dap_C18_Diacid)]-[bhPhe]-[(D)Lys]-NH2] (Isovaleryl-E(OMe)TH[Dip]PCCK([AEEA-AEEA-Dap-C18 diacid])[β3hF][dK]-NH2; disulfide 6-7)	10 to 100	10 to 100				
CCCCCCCCCCCCCCCC(=O)NCCCCCC(=O)NCCCC[C@H](NC(=O)[C@@H]1CSSC[C@H](NC(=O)[C@@H]2CCCN2C(=O)[C@@H](NC(=O)[C@H](Cc2c[nH]cn2)NC(=O)[C@@H](NC(=O)[C@H](CCC(=O)O)NC(=O)CC(C)C)[C@@H](C)O)C(c2ccccc2)c2ccccc2)C(=O)N1)C(=O)N[C@H](CC(=O)N[C@H](CCCCN)C(N)=O)Cc1ccccc1 [Compd 39] (Isovaleryl-ETH[Dip]PCCK([Ahx-Palmitoyl])[β3hF][dK]-NH2; disulfide 6-7)	1 to 10	10 to 100				
CCCCCCCCCCCCCCCC(=O)NCCCCCC(=O)NCCCC[C@H](NC(=O)[C@@H]1CSSC[C@H](NC(=O)[C@@H]2CCCN2C(=O)[C@@H](NC(=O)[C@H](Cc2c[nH]cn2)NC(=O)[C@@H](NC(=O)[C@H](CCC(=O)OC)NC(=O)CC(C)C)[C@@H](C)O)C(c2ccccc2)c2ccccc2)C(=O)N1)C(=O)N[C@H](CC(=O)N[C@H](CCCCN)C(N)=O)Cc1ccccc1 [Compd 40] (Isovaleryl-E(OMe)TH[Dip]PCCK([Ahx-Palmitoyl])[β3hF][dK]-NH2; disulfide 6-7)	1 to 10	10 to 100				

From patent US20250277012A1 (Protagonist Therapeutics, Inc., priority 2021, published 2025)
